Columns and labels:
LC3-II [1] = test: Autophagy inhibition by LC3-II western blot in HEK293T cells; format: cell-based, Homo sapiens; details: 12 hr
Text: (§1) Cells transfected and/or treated with different compounds were harvested at the end of treatment.

TOM1L2 = target: T1, TOM1L2 (Homo sapiens, UniProt Q6ZVM7); test: MST binding to Cy5-labeled TOM1L2; details: n = 2
T1 construct: 6xHis (pET28a, Ni column purification); made in house; host or cells: E. coli BL21(DE3)
T1 sequence (Q6ZVM7 1-507): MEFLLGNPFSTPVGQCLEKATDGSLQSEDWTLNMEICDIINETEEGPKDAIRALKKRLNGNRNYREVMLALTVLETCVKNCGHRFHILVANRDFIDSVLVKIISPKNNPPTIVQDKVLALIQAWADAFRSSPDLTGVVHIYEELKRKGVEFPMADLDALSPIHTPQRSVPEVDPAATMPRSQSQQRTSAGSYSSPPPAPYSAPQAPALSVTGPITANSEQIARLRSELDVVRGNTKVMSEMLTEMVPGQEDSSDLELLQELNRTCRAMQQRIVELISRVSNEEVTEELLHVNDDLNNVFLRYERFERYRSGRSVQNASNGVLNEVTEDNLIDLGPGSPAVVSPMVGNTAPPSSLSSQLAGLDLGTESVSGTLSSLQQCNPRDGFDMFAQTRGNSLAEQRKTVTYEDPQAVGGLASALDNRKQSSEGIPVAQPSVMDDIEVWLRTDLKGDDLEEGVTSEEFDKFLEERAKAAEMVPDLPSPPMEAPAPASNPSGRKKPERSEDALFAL
Method: (§2) SEPHS2-2xV5, VPS37C-2xV5, VPS29, TRAPPC3, TOM1, and TOM1L2 were labeled using Cy5-NHS ester (A100932, Sangon Biotech, China). Briefly, each target protein was diluted to 10 µM in PBS and underwent buffer exchange with PBS using a Zeba spin desalting column (89882, Thermo Scientific, USA) to remove Tris. The labeling reaction consisted of 80 µl of 10 µM target protein, 10 µl of 1 M NaHCO3 pH 8.3, and 10 µl of 1 mM Cy5-NHS ester in DMSO, and was incubated at 4°C overnight. The next day, unlabeled dyes were removed using Zeba spin desalting columns, and labeling efficiency was assessed by measuring the concentration of Cy5 with a UV-Vis spectrophotometer (SMA5000, Merinton, China). […] Cy5-labeled SEPHS2-2xV5 (5 nM), VPS37C-2xV5 (5 nM), VPS29 (10 nM), TRAPPC3 (10 nM), TOM1 (10 nM), or TOM1L2 (10 nM) was mixed with the corresponding diluted compound in a total volume of 20 µl, and then loaded into Monolith premium capillaries (MO-K025, NanoTemper, Germany). Binding affinity analysis was performed using a NanoTemper Monolith NT.115 instrument (NanoTemper). Kd values were obtained using MO.Affinity Analysis 2.3.0 software (NanoTemper).

VPS37C [2] = target: T2, VPS37C (Homo sapiens, UniProt A5D8V6); test: Cellular thermal shift assay (CETSA) on cell lysates; format: binding; details: 20 µM compound, 47°C to 59°C
T2 construct: expressed in transfected cells; host or cells: HEK293T
Method: […] cells were cultured on a 100 mm dish and transfected with 10 µg of VPS37C-2xV5 plasmid. Forty-eight hours later, the cells were washed twice with ice-cold PBS, harvested in 1 ml of PBS buffer supplemented with 0.4% NP-40 and 0.5×protease inhibitor cocktail, incubated for 15 min with gently rotation at room temperature, and centrifuged at maximum speed for 15 min at 4°C. The supernatant was transferred to a new 1.5 ml microtube, and protein concentration was determined by a BCA assay. Cell lysates were diluted to a concentration of 2 mg/ml and divided into two groups. The drug group was treated with 20 µM of DC660 or HCQ, while the control group received the same amount of DMSO. After a 20 min incubation at room temperature, cell lysates were gently mixed and aliquoted into PCR tubes with 40 µl each, then subjected to heat treatment for 4 min, ranging from 47°C to 59°C in 2°C increments, and cooled to room temperature on a T100 thermal cycler (Bio-Rad, USA). Subsequently, cell lysates were transferred to 1.5 ml microtubes and centrifuged at maximum speed for 20 min at 4°C to precipitate unstable insoluble proteins. The supernatant was transferred to a new 1.5 ml microtube, and 10 µl of 5×SDS sample buffer was added to each tube. Samples were boiled at 95°C for 5 min and processed for western blot analysis.

VPS37C-V5 = target: T3, VPS37C-V5 (Homo sapiens, UniProt A5D8V6); test: POST-IT labeling and streptavidin pulldown of VPS37C-V5 in HEK293T cells; format: cell-based; details: 200 nM DC661-H1 with 2 µM competitor
T3 construct: expressed in transfected cells; host or cells: HEK293T

TRAPPC3 = target: T4, TRAPPC3 (Homo sapiens, UniProt O43617); test: MST binding to Cy5-labeled TRAPPC3; details: n = 2
T4 construct: 6xHis (pET28a, Ni column purification); made in house; host or cells: E. coli BL21(DE3)
Method: as §2

VPS37C [3] = target: T2, VPS37C; test: MST binding to Cy5-labeled VPS37C; details: purified recombinant VPS37C; n = 2, mean ± s.d.
Method: as §2

VPS29 = target: T5, VPS29 (Homo sapiens, UniProt Q9UBQ0); test: MST binding to Cy5-labeled VPS29
T5 construct: 6xHis (pET28a, Ni column purification); made in house; host or cells: E. coli BL21(DE3)
Method: as §2

TOM1 = target: T6, TOM1 (Homo sapiens, UniProt O60784); test: MST binding to Cy5-labeled TOM1; details: n = 2
T6 construct: 6xHis (pET28a, Ni column purification); made in house; host or cells: E. coli BL21(DE3)
Method: as §2

LC3-II [4] = test: Autophagy inhibition by LC3-II western blot in A375 cells; format: cell-based, Homo sapiens; details: 12 hr
Text: as §1

Myc-Halo^8KR-PafA = target: T7, Myc-Halo^8KR-PafA (Rhodococcus rhodochrous, UniProt P0A3G2, A155T/A167V/A172T/A224E/C128F/C176G/D78G/E160R/E257R/H272N/K117R/K124R/K175M/K195N/K236R/K263R/K71R/K74R/L47V/L88M/N227D/P291S/S58T/T264A/Y273L/Y87F); test: Halo-biotin competition assay (western blot, streptavidin-HRP); format: binding, Corynebacterium glutamicum; details: 2 μM DH1 preincubation, 1 μM Myc-Halo^8KR-PafA, then 5 μM Halo-Biotin
T7 construct: 6xHis (Ni column purification); made in house; host or cells: E. coli BL21(DE3)
Method: Figure 2. Optimized Halo-PafA and Pup substrates efficiently promote pupylation in vitro in a proximity-dependent manner. […] (B) Comparison of proximity-tagging by different Halo-PafA derivatives on in vitro pupylation. (C) Comparison of different Pup substrates on in vitro pupylation with 500 nM DH1. […] (B–D) All reactions were conducted with 1 μM of a Halo-PafA derivative, 10 μM of one of the different Pup substrates, and 0.5 μM of a purified short SRC with a 2xV5 tag, SRC(247-536)-2xV5, at 37°C for 30 min. Pupylation levels of SRC were assessed by immunoblot (IB) using an anti-V5 antibody. Figure 2—source data 1. […] Figure 2—source data 2. […] Figure 2—figure supplement 1. Synthesis of dasatinib-Halo derivative 1 (DH1). Reagents and conditions: (a) HATU, DIPEA, DMF, RT, 2 hr; (b) NaOH, THF, H2O, RT, 2 hr. RT, room temperature. [drawing 4] Figure 2—figure supplement 2. Representative spectra of DH1. (A) ^1H NMR; (B) HRMS. [drawing 5] Figure 2—figure supplement 3. […] (A) Fluorescence polarization (FP) assay using 2 nM of HaloTag Alexa Fluor-488 (Halo-AF488) at 25°C. n = 2. […] (B) Western blot analysis for the Halo-Biotin competition assay. […] Levels of bound Halo-Biotin were assessed by streptavidin-HRP. (C) Quantitative analysis of western blot results shown in (B). n = 5. […] Pupylation levels of SRC were assessed by immunoblot (IB) using an anti-V5 antibody. […]

SRC = test: In cellulo pupylation and pulldown assay of SRC in HEK293T cells; format: cell-based, Homo sapiens; details: 500 nM DH1
SRC(247-536)-2xV5 = SRC(247-536)-2xV5 (Homo sapiens, UniProt P12931); details: 500 nM DH1, N-terminal Halo^8KR, 37°C, 30 min
HA-FKBP-EGFP = HA-FKBP-EGFP (Homo sapiens, UniProt P42345+P62942); test: Rapamycin-induced pupylation of FKBP-EGFP by FRB-mKate2-PafA in HEK293T cells; format: cell-based; details: 100 nM rapamycin
Sequence of HA-FKBP-EGFP (P62942 whole entry): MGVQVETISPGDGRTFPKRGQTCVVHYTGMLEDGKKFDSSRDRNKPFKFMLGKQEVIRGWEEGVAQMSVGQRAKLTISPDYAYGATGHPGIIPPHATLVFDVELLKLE
Sequence of HA-FKBP-EGFP (P42345 2012-2144 limits assumed): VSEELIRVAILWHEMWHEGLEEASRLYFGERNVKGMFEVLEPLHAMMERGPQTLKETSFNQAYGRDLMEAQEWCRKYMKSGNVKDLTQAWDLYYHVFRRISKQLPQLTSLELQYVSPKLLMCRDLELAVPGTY

T2 sequence (A5D8V6 whole entry): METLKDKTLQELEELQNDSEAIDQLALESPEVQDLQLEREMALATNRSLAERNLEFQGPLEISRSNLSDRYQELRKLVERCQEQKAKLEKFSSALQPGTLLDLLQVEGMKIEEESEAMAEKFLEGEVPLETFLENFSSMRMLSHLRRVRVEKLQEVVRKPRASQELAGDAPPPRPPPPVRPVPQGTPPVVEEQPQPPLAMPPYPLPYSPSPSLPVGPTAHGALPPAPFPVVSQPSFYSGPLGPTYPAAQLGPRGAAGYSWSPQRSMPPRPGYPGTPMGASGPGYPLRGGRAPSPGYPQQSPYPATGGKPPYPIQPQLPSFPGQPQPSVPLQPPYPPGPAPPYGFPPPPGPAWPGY
T4 sequence (O43617 whole entry): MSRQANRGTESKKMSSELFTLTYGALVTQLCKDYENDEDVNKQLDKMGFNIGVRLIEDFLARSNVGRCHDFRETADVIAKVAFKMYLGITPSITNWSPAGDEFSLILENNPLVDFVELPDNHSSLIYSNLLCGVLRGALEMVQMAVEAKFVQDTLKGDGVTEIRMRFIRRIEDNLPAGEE
T3 sequence (A5D8V6 whole entry): as the sequence (A5D8V6 whole entry) above
T6 sequence (O60784 whole entry): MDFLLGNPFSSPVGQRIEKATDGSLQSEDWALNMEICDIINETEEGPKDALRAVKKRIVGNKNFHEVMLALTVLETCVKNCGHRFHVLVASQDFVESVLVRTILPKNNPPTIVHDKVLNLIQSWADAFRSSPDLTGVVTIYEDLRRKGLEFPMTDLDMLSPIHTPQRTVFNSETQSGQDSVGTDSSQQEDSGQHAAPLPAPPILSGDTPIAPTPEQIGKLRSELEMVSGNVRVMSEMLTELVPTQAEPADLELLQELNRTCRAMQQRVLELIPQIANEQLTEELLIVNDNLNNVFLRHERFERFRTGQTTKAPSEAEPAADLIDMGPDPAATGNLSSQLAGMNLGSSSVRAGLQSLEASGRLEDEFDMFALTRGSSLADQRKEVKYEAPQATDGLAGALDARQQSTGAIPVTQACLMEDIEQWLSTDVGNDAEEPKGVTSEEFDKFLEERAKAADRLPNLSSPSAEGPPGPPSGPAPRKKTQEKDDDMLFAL
Sequence of SRC(247-536)-2xV5 (P12931 247-536): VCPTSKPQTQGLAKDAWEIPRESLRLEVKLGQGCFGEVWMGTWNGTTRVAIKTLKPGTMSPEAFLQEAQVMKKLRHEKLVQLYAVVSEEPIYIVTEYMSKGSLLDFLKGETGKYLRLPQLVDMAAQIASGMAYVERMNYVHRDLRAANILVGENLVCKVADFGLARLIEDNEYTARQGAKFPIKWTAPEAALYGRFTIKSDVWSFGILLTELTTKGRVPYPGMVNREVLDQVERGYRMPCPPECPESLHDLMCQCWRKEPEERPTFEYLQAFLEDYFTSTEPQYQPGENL
T7 sequence (P0A3G2 other isoform, or with tags, fused parts or gaps with the stated changes): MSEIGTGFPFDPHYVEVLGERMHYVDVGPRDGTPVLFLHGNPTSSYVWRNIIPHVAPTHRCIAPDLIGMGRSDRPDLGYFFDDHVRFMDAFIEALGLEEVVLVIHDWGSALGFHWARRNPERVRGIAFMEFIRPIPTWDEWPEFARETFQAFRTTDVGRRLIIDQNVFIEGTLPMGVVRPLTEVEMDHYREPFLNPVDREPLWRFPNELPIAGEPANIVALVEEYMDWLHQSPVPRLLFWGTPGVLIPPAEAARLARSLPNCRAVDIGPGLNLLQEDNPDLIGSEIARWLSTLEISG

binding to TOM1L2 (MST) (TOM1L2)	thermal stability of VPS37C versus DMSO (CETSA) (VPS37C [2])	VPS37C binding to DC661-H1 under competition (VPS37C-V5)	binding to TRAPPC3 (MST) (TRAPPC3)	Kd (VPS37C [3]) [µM]	Kd (VPS29; n = 2, mean ± s.d.) [µM]	binding to TOM1 (MST) (TOM1)	binding to VPS29 (MST dose-response) (VPS29; n = 2)	pupylation of FKBP-EGFP by PafA fused with FRB (HA-FKBP-EGFP)	SMILES	levels of LC3-II band (autophagy inhibition) (LC3-II [1])	levels of LC3-II band (autophagy inhibition) (LC3-II [4])	time for efficient linking to Halo^8KR-PafA (Myc-Halo^8KR-PafA) [min]	POST-IT labeling of exogenous and endogenous SRC (SRC)	pupylation of purified recombinant short SRC by Halo^8KR-PafA (SRC(247-536)-2xV5)
appeared to bind well	more stable	almost completely abolished	appeared to bind well	0.0215 ± 0.0098	25 ± 11.7	appeared to bind well	–	–	Clc1ccc2c(NCCCCCCNCCCCCCNc3ccnc4cc(Cl)ccc34)ccnc2c1 [DC660, N^1-(7-Chloroquinolin-4-yl)-N^6-(6-((7-chloroquinolin-4-yl)amino)hexyl)hexane-1,6-diamine]	robust LC3-II bands	robust LC3-II bands	–	–	–
–	–	–	–	–	–	–	–	–	Cc1nc(Nc2ncc(C(=O)Nc3c(C)cccc3Cl)s2)cc(N2CCN(CCNC(=O)CCCCC(=O)NCCOCCOCCOCCOCCCCCCCl)CC2)n1 [DH1, N1-(2-(4-(6-((5-((2-Chloro-6-methylphenyl)carbamoyl)thiazol-2-yl)amino)-2-methylpyrimidin-4-yl)piperazin-1-yl)ethyl)-N6-(18-chloro-3,6,9,12-tetraoxaoctadecyl)adipamide]	–	–	≤ 15	significant labeling activity	robust pupylation
did not show detectable binding	more stable	almost completely abolished	did not show detectable binding	16.9 ± 8.7	–	did not show detectable binding	no binding	–	CCN(CCO)CCCC(C)Nc1ccnc2cc(Cl)ccc12 (centres unmarked) [HCQ, hydroxychloroquine, reference compound]	–	–	–	–	–
–	–	–	–	–	–	–	–	robust pupylation	CO[C@H]1C[C@@H]2CC[C@@H](C)[C@@](O)(O2)C(=O)C(=O)N2CCCC[C@H]2C(=O)O[C@H]([C@H](C)C[C@@H]2CC[C@@H](O)[C@H](OC)C2)CC(=O)[C@H](C)/C=C(\C)[C@@H](O)[C@@H](OC)C(=O)[C@H](C)C[C@H](C)/C=C/C=C/C=C/1C [rapamycin]	–	–	–	–	–

From PMC11677243, “Target protein identification in live cells and organisms with a non-diffusive proximity tagging system” (eLife, 2024)
